# Assay results from patent publication US12144851B2, “Vaccinal strategy” (INSERM (INSTITUT NATIONAL DE LA SANTÉ ET DE LA RECHERCHE …, priority 2018, dated 2024).
# Like-named read-outs stand apart in the source and are kept apart here. Where a SMILES comes first, the peptide text is derived from it. Where no end group is shown, it is not given here.
# Assays:
# [1] = tested on: MELOE-1, HLA A*0201 restricted CD8 T cell clone; conditions: for cross-presentation compared with full length MELOE-1 / native antigen (in words): full length MELOE-1 as reference; for Fold change = EC50 (M) of MELOE-111-46/EC50 (M) SLP: SLP MELOE-113-27 xxxx MELOE-136-44, TNF-a response of CD8 T cell clone to SLP-loaded DC, range over independent experiments
# [2] = tested on: MELOE-1, HLA DRb1*11 restricted CD4 T cell clone
# [3] = read-out: EC50, cross-presentation of the HLA-A*0201-restricted MELOE-1 epitope, SLP series MELOE-1 11-23 xxxx MELOE-1 36-44, three independent experiments, FIG. 3
"EC50 [1, 3] [nM]",Fold change = EC50 (M) of MELOE-111-46/EC50 (M) SLP [1],Compound,cross-presentation compared with full length MELOE-1 / native antigen (in words) [1],other results
,,"CC(C)C[C@H](NC(=O)[C@@H](NC(=O)CNC(=O)CNC(=O)CNC(=O)CNC(=O)[C@H](Cc1c[nH]c2ccccc12)NC(=O)[C@@H]1CCCN1C(=O)[C@@H]1CCCN1C(=O)[C@H](CS)NC(=O)[C@H](C)NC(=O)[C@H](C)NC(=O)CNC(=O)[C@H](CCC(=O)O)NC(=O)[C@H](CO)NC(=O)[C@@H]1CCCN1C(=O)[C@H](CC(C)C)NC(=O)[C@H](Cc1ccccc1)NC(=O)[C@H](CCC(N)=O)NC(=O)[C@H](CCC(=O)O)NC(=O)[C@H](CCCNC(=N)N)NC(=O)[C@H](CO)NC(=O)[C@@H](NC(=O)[C@H](C)NC(=O)[C@H](C)N)[C@@H](C)O)[C@@H](C)O)C(=O)N[C@@H](CC(N)=O)C(=O)N[C@@H](CC(=O)O)C(=O)N[C@@H](CCC(=O)O)C(=O)N[C@@H](CS)C(=O)N[C@@H](Cc1c[nH]c2ccccc12)C(=O)N1CCC[C@H]1C(=O)N[C@@H](C)C(=O)O [GGGG (MELOE-111-23 xxxx MELOE-136-44), reference compound] (H-AATSREQFLPSEGAACPPWGGGGTLNDECWPA-OH; N-terminus and C-terminus assumed)",poorer cross-presentation,EC50 [1]: 1200 nM
,,"CC[C@H](C)[C@H](NC(=O)[C@H](CCCNC(=N)N)NC(=O)[C@H](CCC(=O)O)NC(=O)[C@H](CO)NC(=O)[C@@H]1CCCN1C(=O)[C@H](Cc1c[nH]cn1)NC(=O)[C@H](Cc1c[nH]c2ccccc12)NC(=O)[C@@H]1CCCN1C(=O)[C@@H]1CCCN1C(=O)[C@H](CS)NC(=O)[C@H](C)NC(=O)[C@H](C)N)C(=O)N[C@@H](CO)C(=O)N[C@@H](CO)C(=O)N[C@H](C(=O)N[C@@H](CC(C)C)C(=O)NCC(=O)NCC(=O)NCC(=O)NCC(=O)N[C@H](C(=O)N[C@@H](CC(C)C)C(=O)N[C@@H](CC(N)=O)C(=O)N[C@@H](CC(=O)O)C(=O)N[C@@H](CCC(=O)O)C(=O)N[C@@H](CS)C(=O)N[C@@H](Cc1c[nH]c2ccccc12)C(=O)N1CCC[C@H]1C(=O)N[C@@H](C)C(=O)N[C@@H](CO)C(=O)N[C@@H](CC(C)C)C(=O)O)[C@@H](C)O)[C@@H](C)O [GGGG (MELOE-124-37 xxxx MELOE-136-44), reference compound] (H-AACPPWHPSERISSTLGGGGTLNDECWPASL-OH; N-terminus and C-terminus assumed)",,EC50 [2]: 26 nM; EC50 [1]: 1900 nM
,,CC[C@H](C)[C@H](NC(=O)[C@H](CCCNC(=N)N)NC(=O)[C@H](CCC(=O)O)NC(=O)[C@H](CO)NC(=O)[C@@H]1CCCN1C(=O)[C@H](Cc1c[nH]cn1)NC(=O)[C@H](Cc1c[nH]c2ccccc12)NC(=O)[C@@H]1CCCN1C(=O)[C@@H]1CCCN1C(=O)[C@H](CS)NC(=O)[C@H](C)NC(=O)[C@H](C)N)C(=O)N[C@@H](CO)C(=O)N[C@@H](CO)C(=O)N[C@H](C(=O)N[C@@H](CC(C)C)C(=O)N[C@@H](CC(C)C)C(=O)N[C@H](C(=O)NCC(=O)N[C@@H](CO)C(=O)N[C@H](C(=O)N[C@@H](CC(C)C)C(=O)N[C@@H](CC(N)=O)C(=O)N[C@@H](CC(=O)O)C(=O)N[C@@H](CCC(=O)O)C(=O)N[C@@H](CS)C(=O)N[C@@H](Cc1c[nH]c2ccccc12)C(=O)N1CCC[C@H]1C(=O)N[C@@H](C)C(=O)N[C@@H](CO)C(=O)N[C@@H](CC(C)C)C(=O)O)[C@@H](C)O)C(C)C)[C@@H](C)O [LVGS (MELOE-124-37 xxxx MELOE-136-44)] (H-AACPPWHPSERISSTLLVGSTLNDECWPASL-OH),,EC50 [2]: 14 nM; EC50 [1]: 110 nM
12,,ASLG [ASLG (MELOE-111-23 xxxx MELOE-136-44)],ten fold better presentation,
430,,GSGS [GSGS (MELOE-111-23 xxxx MELOE-136-44)],poorer cross-presentation,
2.8,,LLSV [LLSV (MELOE-111-23 xxxx MELOE-136-44)],hundred fold better,
34,,LVGS [LVGS (MELOE-111-23 xxxx MELOE-136-44)],ten fold better presentation,
,,"MSCVGYPDEATSREQFLPSEGAACPPWHPSERISSTLNDECWPASL (cysteines drawn unpaired) [full length MELOE-1, reference compound]",,EC50 [2]: ~70 nM
3.2,,PIVLG [PIVLG (MELOE-111-23 xxxx MELOE-136-44)],hundred fold better,
,1-3,TSREQFLPSEGAACPPWALSVGGTLNDECWPASL (Synthetic SLP) [SEQ ID NO: 77],,
,1,TSREQFLPSEGAACPPWGLSVGGTLNDECWPASL (Synthetic SLP) [SEQ ID NO: 81],,
,1,TSREQFLPSEGAACPPWGLSVVVTLNDECWPASL (Synthetic SLP) [SEQ ID NO: 85],,
,2.3-10,TSREQFLPSEGAACPPWPLSVIITLNDECWPASL (Synthetic SLP) [SEQ ID NO: 79],,
,7-8,TSREQFLPSEGAACPPWSLSVAATLNDECWPASL (Synthetic SLP) [SEQ ID NO: 73],,
,1-8,TSREQFLPSEGAACPPWSLSVGGTLNDECWPASL (Synthetic SLP) [SEQ ID NO: 75],,
,1.5-2,TSREQFLPSEGAACPPWVLSVGGTLNDECWPASL (Synthetic SLP) [SEQ ID NO: 69],,
,3-13,TSREQFLPSEGAACPPWVLSVGTLNDECWPASL (Synthetic SLP) [SEQ ID NO: 71],ten fold,
2.1,,VLSVG [VLSVG (MELOE-111-23 xxxx MELOE-136-44)],hundred fold better,
